Results: patent publication US20060115815A1 (priority 2002, published 2006)
Read-outs that look alike come from different tables or passages of the source.

What was measured:
[1] = molecular target: recombinant HIV-1 protease (Human immunodeficiency virus type 1 group M subtype B, UniProt P04585); assay: biochemical; assay type: biochemical
[2] = test system: mutant HIV-1 with I84V/L90M mutations in the protease gene; assay type: cell-based
[3] = test system: wild-type HIV-1 strain IIIB; assay: microbe, parasite or virus in culture; assay type: cell-based
WT = assay: microbe, parasite or virus in culture; assay type: cell-based, HIV-1; details: Human immunodeficiency virus 1, read-out: Cell-based assay (MT-4) EC50 WT
84V90M = 84V90M (Human immunodeficiency virus type 1 group M subtype B, UniProt P04585, I572V/L578M); assay: cell-based; design: species or system HIV-1
WT HIV-1 = assay: microbe, parasite or virus in culture; assay type: cell-based
30N82I88D = assay: microbe, parasite or virus in culture; assay type: cell-based, HIV-1; details: Human immunodeficiency virus 1, read-out: Cell-based assay (MT-4) EC50 30N82I88D
[4] = test system: recombinant HIV-1 strains with resistance mutations in the protease gene; assay: Cross-resistance profile assay, whole panel of mutant viruses; assay type: cell-based
[5] = test system: PBMC in intact human whole blood
[6] = Human immunodeficiency virus 1, read-out: EC50 [nM] WT HIV-1
[7] = fold difference in EC50, mutant vs. wild type
[8] = Ki (pM), class symbols, Table 10

Compound: COc1ccc(S(=O)(=O)N(CC(C)C)CC(O)C(CC2=CCN(CP(=O)(O)OC(C)C(=O)O)CC2)NC(=O)OC2COC3OCCC23)cc1 (stereo not shown)
- Ki ([1]; read-out: Ki): > 1000 pM

Compound: COc1ccc(S(=O)(=O)N(CC(C)C)CC(O)C(CN(C)Cc2ccc(P(=O)(O)OC(C)C(=O)O)cc2)NC(=O)OC2COC3OCCC23)cc1 (stereo not shown)
- Ki ([1]; read-out: Ki): > 1000 pM

Compound: COc1ccc(S(=O)(=O)N(CC(C)C)C[C@@H](O)[C@H](CN2CCc3cc(OCP(=O)(O)OC(C)C(=O)O)ccc3C2)NC(=O)O[C@H]2CO[C@H]3OCC[C@H]32)cc1 (stereo partly shown)
- Ki ([1]; read-out: Ki): 100 to 1000 pM

Compound: Cc1cccc(C)c1OCC(=O)N[C@@H](Cc1ccc(OCP(=O)(Oc2ccccc2)Oc2ccccc2)cc1)[C@H](O)CN(CC(C)C)S(=O)(=O)c1ccc(N)cc1
- Ki ([1]; read-out: Ki): 100 to 1000 pM
- I84V/L90M fold change ([2]; I84V/L90M mutant): ++ (>10 to ≦30)
- EC50 ([3]; read-out: EC50): < 50 nM

Compound: Cc1ccc(C(=O)N[C@@H](Cc2ccc(OCP(=O)(Oc3ccccc3)Oc3ccccc3)cc2)[C@H](O)CN(CC(C)C)S(=O)(=O)c2ccc(N)cc2)cc1O
- Ki ([1]; read-out: Ki): 100 to 1000 pM
- I84V/L90M fold change ([2]; I84V/L90M mutant): + (>3 to ≦10)
- EC50 ([3]; read-out: EC50): 50 to 500 nM

Compound: Cc1ccc(C(=O)N[C@@H](Cc2ccc(OCP(=O)(OCc3ccccc3)OCc3ccccc3)cc2)[C@H](O)CN(CC(C)C)S(=O)(=O)c2ccc(N)cc2)cc1O
- I84V/L90M fold change ([2]; I84V/L90M mutant): + (>3 to ≦10)
- EC50 ([3]; read-out: EC50): 50 to 500 nM

Compound: CCOC(=O)C(C)OP(=O)(COc1ccc(C[C@H](NC(=O)O[C@H]2CO[C@H]3OCC[C@H]32)[C@H](O)CN(CC(C)C)S(=O)(=O)c2ccccc2)cc1)Oc1ccccc1 (stereo partly shown)
- I84V/L90M fold change ([2]; I84V/L90M mutant): + (>3 to ≦10)
- EC50 ([3]; read-out: EC50): < 50 nM

Compound: CCOC(=O)C(C)OP(=O)(COc1ccc(C[C@H](NC(=O)O[C@H]2CO[C@H]3OCC[C@H]32)[C@H](O)CN(CC(C)C)S(=O)(=O)c2ccc(F)cc2)cc1)Oc1ccccc1 (stereo partly shown)
- I84V/L90M fold change ([2]; I84V/L90M mutant): + (>3 to ≦10)
- EC50 ([3]; read-out: EC50): < 50 nM

Compound: CC(C)CN(C[C@@H](O)[C@H](Cc1ccc(OCP(=O)(OCc2ccccc2)OC(C)C(=O)OCc2ccccc2)cc1)NC(=O)O[C@H]1CO[C@H]2OCC[C@H]21)S(=O)(=O)c1ccc(F)cc1 (stereo partly shown)
- I84V/L90M fold change ([2]; I84V/L90M mutant): + (>3 to ≦10)
- EC50 ([3]; read-out: EC50): 50 to 500 nM

Compound: CC(C)CN(CC(O)C(Cc1ccc(OCP(=O)(O)OC(C)C(=O)O)cc1)NC(=O)OC1COC2OCCC12)S(=O)(=O)c1ccc(CO)cc1 (stereo not shown)
- Ki ([1]; read-out: Ki): 10 to 100 pM

Compound: CC(C)CN(CC(O)C(Cc1ccc(OCP(=O)(O)OC(C)C(=O)O)cc1)NC(=O)OC1COC2OCCC12)S(=O)(=O)c1ccc(CN2CCOCC2)cc1 (stereo not shown)
- Ki ([1]; read-out: Ki): > 1000 pM

Compound: CC(C)CN(CC(O)C(Cc1ccccc1)NC(=O)OC1COC2OCCC12)S(=O)(=O)c1ccc(OCP(=O)(O)Oc2ccccc2)cc1 (stereo not shown)
- Ki ([1]; Ki): 10 to 100 pM

Compound: CCOP(=O)(CCCNC(=O)c1cccc(CN2C(=O)N(Cc3ccc4[nH]nc(N)c4c3)C(Cc3ccccc3)C(O)C(O)C2Cc2ccccc2)c1)OCC (stereo not shown)
- EC50 (WT): 188 nM
- EC50 (84V90M): 476 nM

Compound: CCOP(=O)(CCn1nc(O)c2cc(CN3C(=O)N(Cc4ccccc4)[C@H](Cc4ccccc4)[C@H](O)[C@@H](O)[C@H]3Cc3ccccc3)ccc21)OCC
- IC50 ([1]; read-out: Enzymatic assay WT IC50/nM): 109 nM

Compound: COc1ccc(CN2C(=O)N(Cc3ccc(OCc4ccccc4)cc3)[C@H](Cc3ccccc3)[C@H](O)[C@@H](O)[C@H]2Cc2ccccc2)cc1C#N
- Ki ([1]; read-out: Enzymatic assay Ki): > 5000 pM
- EC50 (WT HIV-1; MT-4, WT, read-out: Cell-based assay (MT-4) EC50/nM WT): 5950 nM

Compound: CCOP(=O)(COc1ccc(CC2C(O)C(O)C(Cc3ccccc3)N(Cc3ccccc3)C(=O)N2Cc2ccccc2)cc1)OCC (stereo not shown)
- EC50 (WT HIV-1; Human immunodeficiency virus 1, read-out: Cell-based assay (MT-4) EC50/nM WT): 107 nM

Compound: Nc1n[nH]c2ccc(CN3C(=O)N(Cc4ccc(OCP(=O)(OCc5ccccc5)OCc5ccccc5)cc4)C(Cc4ccccc4)C(O)C(O)C3Cc3ccccc3)cc12 (stereo not shown)
- EC50 (30N82I88D): 2120 nM
- EC50 (WT): 2700 nM
- EC50 (84V90M): 4960 nM

Compound: CCOP(=O)(COc1ccc(CN2C(=O)N(Cc3ccc4[nH]nc(N)c4c3)C(Cc3ccccc3)C(O)C(O)C2Cc2ccccc2)cc1)OCC (stereo not shown)
- EC50 (30N82I88D): 1340 nM
- EC50 (WT): 2480 nM
- EC50 (84V90M): > 6000 nM

Compound: COc1ccc(S(=O)(=O)N(CC(C)C)C[C@@H](O)[C@H](Cc2ccccc2)NC(=O)O[C@H]2CO[C@H]3OCC[C@H]32)cc1 [94-003, reference compound]
- EC50 (WT HIV-1; [6]): 0.5 nM
- Total No. of Resistant Viruses ([4]; {}): 3

Compound: CCOP(=O)(COCCCCN1C(=O)N(Cc2ccc3[nH]nc(N)c3c2)C(Cc2ccccc2)C(O)C(O)C1Cc1ccccc1)OCC (stereo not shown) [CH2OCH2PO3Et2]
- EC50 (84V90M): 3300 nM

Compound: Nc1n[nH]c2ccc(CN3C(=O)N(CCCCOCP(=O)(O)O)C(Cc4ccccc4)C(O)C(O)C3Cc3ccccc3)cc12 (stereo not shown) [CH2OCH2PO3H2]
- EC50 (84V90M): > 4240 nM

Compound: CCOC(=O)C(C)NP(=O)(COc1ccc(CC(NC(=O)OC2COC3OCCC23)C(O)CN(CC(C)C)S(=O)(=O)c2ccc(OC)cc2)cc1)Oc1ccccc1 (stereo not shown) [GS-16571]
- Intracellular Acid Metabolite Concentration [5]: 319 ± 112 µM
- Intracellular Prodrug Concentration [5]: 137 ± 62 µM
- Intracellular Prodrug and Metabolites Concentration, uM: Acid Metabolite [5]: 319 ± 112 µM
- Intracellular Prodrug and Metabolites Concentration: Prodrug [5]: 137 ± 62 µM
- Intracellular Prodrug and Metabolites Concentration: Total [5]: 432 ± 208 µM
- Total No. of Resistant Viruses ([4]; of 11 mutant viruses, resistance = 5-fold and higher change in EC50 relative to wild-type): 0

Compound: CC(C)(C)NC(=O)[C@@H]1CN(Cc2cccnc2)CCN1C[C@@H](O)C[C@@H](Cc1ccccc1)C(=O)N[C@H]1c2ccccc2C[C@H]1O [Indinavir, reference compound]
- EC50 (WT HIV-1; [6]): 15 nM
- Total No. of Resistant Viruses ([4]; {}): 8

Compound: CCOP(=O)(COCCCN1C(=O)N(Cc2ccc3[nH]nc(N)c3c2)C(Cc2ccccc2)C(O)C(O)C1Cc1ccccc1)OCC (stereo not shown) [OCH2PO3Et2]
- EC50 (84V90M): > 6000 nM

Compound: CCOP(=O)(COc1ccc(CC2C(O)C(O)C(Cc3ccc(OC)cc3)N(Cc3cccc(N)c3)C(=O)N2Cc2cccc(N)c2)cc1)OCC (stereo not shown) [OCH3, Ph-mNH2, OCH2PO3Et2]
- EC50 (84V90M): 535 nM

Compound: CC(C)c1nc(CN(C)C(=O)N[C@H](C(=O)N[C@@H](Cc2ccccc2)C[C@H](O)[C@H](Cc2ccccc2)NC(=O)OCc2cncs2)C(C)C)cs1 [Ritonavir, reference compound]
- EC50 (WT HIV-1; [6]): 15 nM
- Total No. of Resistant Viruses ([4]; {}): 10

Compound: CC(C)(C)NC(=O)[C@@H]1C[C@@H]2CCCC[C@@H]2CN1C[C@@H](O)[C@H](Cc1ccccc1)NC(=O)[C@H](CC(N)=O)NC(=O)c1ccc2ccccc2n1 [Saquinavir, reference compound]
- EC50 (WT HIV-1; [6]): 4 nM
- Total No. of Resistant Viruses ([4]; {}): 4

Compound: CCOP(=O)(Cc1ccc(CC(NC(=O)OC2COC3OCCC23)C(O)CN(CC(C)C)S(=O)(=O)c2ccc(OC)cc2)cc1)OCC (stereo not shown) [drawing 654 R1=OE R2=OE]
- Ki ([1]; read-out: Ki): < 10 pM
- I84V/L90M fold change [2, 7]: + (>3 to ≦10)
- EC50 ([3]; read-out: EC50): < 50 nM

Compound: COC(=O)C(C)OP(=O)(COc1ccc(CC(NC(=O)OC2COC3OCCC23)C(O)CN(CC(C)C)S(=O)(=O)c2ccc(OC)cc2)cc1)Oc1ccccc1 [drawing 658 R1=OPh R2=(R)Lac-Me]
- Ki [1, 8]: < 10 pM

Compound: CC[C@H](OP(=O)(O)COc1ccc(C[C@H](NC(=O)O[C@H]2CO[C@H]3OCC[C@H]32)[C@H](O)CN(CC(C)C)S(=O)(=O)c2ccc(OC)cc2)cc1)C(=O)O [drawing 659 R1=OH R2=(S)Hba-OH]
- Ki ([1]; read-out: Ki): 10 to 100 pM

Compound: CCOC(=O)C(C)OP(=O)(CCN(C)Cc1ccc(CC(NC(=O)OC2COC3OCCC23)C(O)CN(CC(C)C)S(=O)(=O)c2ccc(OC)cc2)cc1)Oc1ccccc1 (stereo not shown) [drawing 663 R1=Ph R2=Lac-Et]
- Ki [1, 8]: 100 to 1000 pM
- I84V/L90M fold change [2, 7]: + (>3 to ≦10)
- EC50 ([3]; Human immunodeficiency virus 1, IIIB, MT2, class symbols, Table 10): 50 to 500 nM

Compound: COc1ccc(S(=O)(=O)N(CC(C)C)CC(O)C(Cc2ccc(NCP(=O)(NC(C)C(=O)OC(C)C)Oc3ccccc3)cc2)NC(=O)OC2COC3OCCC23)cc1 (stereo not shown) [drawing 704]
- Ki [1, 8]: 10 to 100 pM

Compound: COc1ccc(S(=O)(=O)N(CC(C)C)CC(O)C(Cc2ccc(NCP(=O)(NC(C)C(=O)OC(C)C)Oc3ccccc3)cc2)NC(=O)OC2COC3OCCC23)cc1 (stereo not shown) [drawing 705]
- Ki [1, 8]: < 10 pM

Compound: CCCCOC(=O)C(C)OP(=O)(COc1ccc(C[C@H](NC(=O)O[C@H]2CO[C@H]3OCC[C@H]32)[C@H](O)CN(CC(C)C)S(=O)(=O)c2cccc(N)c2)cc1)Oc1ccccc1 (stereo partly shown) [drawing 763]
- Ki ([1]; read-out: Ki): 10 to 100 pM
- EC50 ([3]; read-out: EC50): 50 to 500 nM

Compound: Nc1n[nH]c2ccc(CN3C(=O)N(Cc4cccc(OCP(=O)(O)Oc5ccccc5)c4)C(Cc4ccccc4)C(O)C(O)C3Cc3ccccc3)cc12 (stereo not shown) [m-OCH2PO3HPh]
- EC50 (84V90M): > 6000 nM

Compound: Nc1n[nH]c2ccc(CN3C(=O)N(Cc4cccc(OCP(=O)(Oc5ccccc5)Oc5ccccc5)c4)C(Cc4ccccc4)C(O)C(O)C3Cc3ccccc3)cc12 (stereo not shown) [m-OCH2PO3Ph2]
- EC50 (84V90M): > 6000 nM
